Results taken from EP0449699A2, “Pyrazole derivatives as angiotensin II-receptor antagonists, process for their preparation and pharmaceutical compositions containing them” (LABORATOIRES UPSA, priority 1990, dated 1991).

Test system: récepteurs surrénaliens de l'angiotensine II
Experiment: Displacement of radioligand [125I]-SIAII specifically bound to adrenal angiotensin II receptors (rat adrenal homogenate)
Assay type: binding
Settings: 60 min, 25°C
Source text: L'affinité des produits des exemples pour les récepteurs de l'angiotensine II est évaluée par technique de déplacement d'un radioligand spécifiquement fixé sur les récepteurs surrénaliens de l'angiotensine Il, chez le rat.
Une aliquote d'un homogénat de surrénales de rat incube en présence d'une concentration unique de [^125I]-SIAII (Sar^1, Tyr^4, Ile^8 - angiotensine II), antagoniste des récepteurs de l'angiotensine II, et de deux concentrations d'agents compétiteurs (10^-5 M, 10-^7 M) durant 60 min à 25°C.
La réaction est achevée par ajout de tampon, puis rapide filtration à travers des filtres de papier de verre. La liaison non spécifique est déterminée en présence d'angiotensine Il.
Les résultats sont exprimés, pour les concentrations testées, en pourcentage de déplacement du radioligand spécifiquement fixé sur les récepteurs surrénaliens de l'angiotensine Il.

Compound | % de déplacement du ligand marqué (competitor 1E-5 M, 10 µM) [%] | % de déplacement du ligand marqué (competitor 1E-7 M, 0.1 µM) [%]
CCCc1nn(C)c(OCC(=O)OC)c1Cc1ccc(NC(=O)c2c(Cl)ccc(Cl)c2C(=O)O)cc1 [Exemple 31, [Méthyl-1 n-propyl-3 ((carboxy-2 dlchloro-3,6-benzoyl amino)-4 benzyl)-4 pyrazol-yl-5] oxyacétatede méthyle] | 93 | 60
CCCc1nn(C)c(OCC(=O)OC)c1Cc1ccc(NC(=O)c2ccccc2C(=O)O)cc1 [Exemple 28, [Méthyl-1 n-propyl-3 ((carboxy-2 benzoyl amino)-4 benzyl)-4 pyrazol-yl-5] oxyacétatede méthyle] | 82 | 34
CCCc1n[nH]c(CO)c1Cc1ccc(NC(=O)c2ccccc2S(=O)(=O)O)cc1 [Exemple 116, Acide ((n-Propyl-3 hydroxy méthyl-5 pyrazol-yl-4)méthylphényl-yl-4] amino carbonyl-2 benzène sulfonique] | 82 | 12
CCCc1nn(C)c(OCCO)c1Cc1ccc(-c2ccsc2C(=O)O)cc1 [Exemple 145, [Méthyl-1 n-Propyl-3 [(carboxy-2 thiényl-3)-4 benzyl]-4 pyrazol-yl-5] oxy-2 éthanol] | 53 | 0
CCCCc1nn(C)c(OCCO)c1Cc1ccc(NC(=O)c2ccccc2S(=O)(=O)O)cc1 [Exemple 51, Acide [[Méthyl-1 n-butyl-3 (hydroxy-2 éthoxy)-5 pyrazol-yl-4]méthylphényl-yl-4] amino carbonyl-2 benzène sulfonique] | 83 | 60
CCCc1nn(CC(F)(F)F)c(O)c1Cc1ccc(-c2ccccc2-c2nnn[nH]2)cc1 [Exemple 74, (Trifluoro-2,2,2 éthyl)-1 n-Propyl-3 hydroxy-5 [(tétrazolyl-5)-2' biphényl-yl-4] méthyl-4 pyrazole] | 66 | 58
CCCCc1nn(C)c(COC)c1Cc1ccc(-c2ccccc2-c2nnn[nH]2)cc1 [Exemple 118, Méthyl-1 n-Butyl-3 [(tétrazolyl-5)2' biphényl-yl-4] méthyl-4 méthoxy méthyl-5 pyrazole] | 67 | 35
CCCc1nn(C)c(OCC(=O)OCC)c1Cc1ccc(NC(=O)c2ccccc2S(=O)(=O)O)cc1 [Exemple 45, Acide [[Méthyl-1 n-propyl-3 (Ethoxy carbonyl méthyloxy)-5 pyrazol-yl-4]méthylphényl-yl-4] amino carbonyl-2 benzène sulfonlque.] | 92 | 60
CCCc1nn(C)c(OCC(=O)O)c1Cc1ccc(NC(=O)c2ccccc2S(=O)(=O)O)cc1 [Exemple 35, Acide [Méthyl-1 n-propyl-3 [(sulfo-2 benzoyl amino)-4 benzyl]-4 pyrazol-yl-5] oxy acétique] | 85 | 48
CCCCc1nn(CC(F)(F)F)c(OC(=O)N(C)C)c1Cc1ccc(-c2ccccc2-c2nn[nH]n2)cc1 [Exemple 80, (Trifluoro-2,2,2 éthyl)-1 n-Butyl-3 [(tétrazolyl-5)-2'biphényl-yl-4] méthyl-4 (N,N-diméthyl carbamoyl) oxy-5 pyrazole] | 69 | 48
CCCc1nn(C)c(COC)c1Cc1ccc(-c2ccccc2-c2nnn[nH]2)cc1 [Exemple 117, Méthyl-1 n-propyl-3 [(tétrazolyl-5)-2'biphényl-yl-4] méthyl-4 méthoxy méthyl-5 pyrazole] | 61 | 35
CCCc1nn(C)c(OCC(=O)OCC)c1Cc1ccc(-c2ccsc2-c2nnn[nH]2)cc1 [Exemple 141, [Méthyl-1 n-propyl-3 [[(tétrazolyl-5)-2 thiényl-3]-4 benzyl]-4 pyrazol-yl-5] oxy acétate d'éthyle] | 64 | 9
CCCCc1nn(CC(F)(F)F)c(OCC(=O)OCC)c1Cc1ccc(-c2ccccc2-c2nn[nH]n2)cc1 [Exemple 78, [(trifluoro-2,2,2éthyl)-1 n-Butyl-3 [(tétrazolyl-5)-2' biphényl-yl-4]méthyl-4 pyrazol-yl-5] oxy acétate d'éthyle] | 73 | 58
CCCCc1nn(C)c(OCC(=O)O)c1Cc1ccc(-c2ccccc2C(=O)O)cc1 [Exemple 37, Acide [Méthyl-1 n-butyl-3 (carboxy-2' biphényl-yl-4)méthyl-4 pyrazol-yl-5] oxyacétique] | 58 | 9
CCCc1nn(C)c(OCCO)c1Cc1ccc(-c2ccccc2C(=O)O)cc1 [Exemple 137, [Méthyl-1 n-Propyl-3 (carboxy-2'blphényl-yl-4)méthyl-4 pyrazol-yl-5]oxy-2 éthanol] | 63 | 5
CCCCc1nn(C)c(O)c1Cc1ccc(NC(=O)c2c(Cl)ccc(Cl)c2C(=O)O)cc1 [Exemple 40, Acide [(Méthyl-1 n-butyl-3 hydroxy-5 pyrazolyl-4]méthylphényl-yl-4] amino carbonyl-2 dichloro-3,6 benzoïque] | 83 | 0
CCCc1nn(C)c(CO)c1Cc1ccc(NC(=O)c2ccccc2S(=O)(=O)O)cc1 [Exemple 115, Acide [(méthyl-1 n-propyl-3 hydroxy méthyl-5 pyrazol-yl-4)méthylphényl-yl-4] amino carbonyl-2 benzène sulfonique] | 80 | 57
CCCCc1nn(C)c(OCC(=O)N2CCOCC2)c1Cc1ccc(NC(=O)c2ccccc2S(=O)(=O)O)cc1 [Exemple 48, N-[[Méthyl-1 n-butyl-3 [(sulfo-2 benzoyl amino)-4 benzyl]-4 pyrazol-yl-5]oxyacétyl] morpholine] | 80 | 58
CCCc1nn(CC(=O)OCC)c(O)c1Cc1ccc(NC(=O)c2c(Cl)ccc(Cl)c2C(=O)O)cc1 [Exemple 41, Acide [[éthoxy carbonyl méthyl-1 n-propyl-3 hydroxy-5 pyrazol-yl-4]méthylphényl-yl-4] amino carbonyl-2 dichloro-3,6 benzoïque] | 85 | 2
CCCc1nn(CC(F)(F)F)c(OC(=O)N(C)C)c1Cc1ccc(NC(=O)c2ccccc2S(=O)(=O)O)cc1 [Exemple 60, Acide [[(trifluoro-2,2,2 éthyl)-1 n-Propyl-3 (N,N-diméthyl carbamoyl)oxy-5 pyrazol-yl-4]méthylphényl-yl-4] amino carbonyl-2 benzène sulfonique] | 84 | 49
CCCc1nn(C)c(OCC(=O)N2CCN(c3ccccc3OC)CC2)c1Cc1ccc(NC(=O)c2ccccc2S(=O)(=O)O)cc1 [Exemple 66, (Méthoxy-2 phényl)-1 [[méthyl-1 n-propyl-3 [(sulfo-2 benzoyl amino)-4 benzyl]-4 pyrazol-yl-5]oxyacétyl]-4 pipérazine] | 92 | 63
